Measurements as given in US11096985B2, “Antimicrobial peptides, their variants and uses” (priority 2015, dated 2021).

Assays:
Assay type in all cases: cell-based
[1] = tested on: clinical strains of Escherichia coli; test: MIC, clinical strains of E. coli; parameters: unit: μg/ml; details: microdilution, Muller Hinton broth-cation adjusted, 0.02% BSA, 0.2% acetic acid
Summary of the method: (§1)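 Clinical isolates at 5.0×10^5 cfu/ml in Mueller-Hinton broth (Potato dextrose broth for yeasts) were exposed to Chain peptides at 0.125–128 μg/ml by broth microdilution, 37 °C for 20–24 h. MIC was the lowest concentration with no visible growth.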

[2] = tested on: clinical strains of Klebsiella pneumoniae; test: MIC, clinical strains of K. pneumoniae; parameters: unit: μg/ml; details: microdilution, Muller Hinton broth-cation adjusted, 0.02% BSA, 0.2% acetic acid
Summary of the method: as §1

[3] = tested on: clinical strains of Pseudomonas aeruginosa; test: MIC, clinical strains of P. aeruginosa; parameters: unit: μg/ml; details: microdilution, Muller Hinton broth-cation adjusted, 0.02% BSA, 0.2% acetic acid
Summary of the method: as §1

[4] = tested on: clinical strains of Serratia marcescens; test: MIC, clinical strains of Serratia marcescens; parameters: unit: µg/mL; details: microdilution, Muller Hinton broth-cation adjusted, 0.02% BSA, 0.2% acetic acid
Summary of the method: as §1

[5] = tested on: clinical strains of Proteus mirabilis; test: MIC, clinical strains of Proteus mirabilis; parameters: unit: µg/mL; details: microdilution, Muller Hinton broth-cation adjusted, 0.02% BSA, 0.2% acetic acid
Summary of the method: as §1

[6] = tested on: clinical strains of Enterobacter cloacae; test: MIC, clinical strains of Enterobacter cloacae; parameters: unit: μg/ml; details: microdilution, Muller Hinton broth-cation adjusted, 0.02% BSA, 0.2% acetic acid
Summary of the method: as §1

[7] = tested on: clinical strains of Staphylococcus aureus; test: MIC, clinical strains of S. aureus; parameters: unit: μg/ml; details: microdilution, Muller Hinton broth-cation adjusted, 0.02% BSA, 0.2% acetic acid
Summary of the method: as §1

[8] = tested on: clinical strains of Streptococcus pneumoniae; test: MIC, clinical strains of Streptococcus pneumoniae; parameters: unit: µg/mL; details: microdilution, Muller Hinton broth-cation adjusted, 0.02% BSA, 0.2% acetic acid
Summary of the method: as §1

[9] = tested on: clinical strains of Acinetobacter baumannii; test: MIC, clinical strains of Acinetobacter baumannii; details: microdilution, Muller Hinton broth-cation adjusted, 0.02% BSA, 0.2% acetic acid
Protocol: (§2) Minimum inhibition concentrations (MICs) were determined against Escherichia coli (ATCC 25922), Staphylococcus aureus (ATCC 25923), Klebsiella pneumoniae (ATCC 10031) and Pseudomonas aeruginosa (ATCC 27853). Also clinical strains of E. coli, K. pneumoniae, E. cloacae, P. aeruginosa, Serratia marcescens, Proteus mirabilis, S. pneumoniae, Acinetobacter baumannii, A. johnsonii and S. aureus were used for MICs assays. Additionally, clinical strains of yeast including Candida albicans, C. glabrata, C. parapsilosis and C. quillermondiae were used. The susceptibility of these microorganisms to Chain peptides were determined using micro broth dilution assay. Colonies of the respective microorganism from Muller Hinton (MH) agar plates incubated overnight were suspended in MH broth media and final concentration of microorganism was adjusted to 5.0×10^5 cfu/ml. An aliquot of 10 μl of each Chain peptide, or gentamicin, tetracycline as reference antibiotics were added in differing concentrations along with 90 μl of bacterial suspension to 96 well polypropylene plates and incubated at 37° C. for 20 to 24 hours. Concentrations of Chain peptides and reference antibiotics ranged from 0.125 to 128 μg/ml and the MICs were recorded as the lowest concentration with no visual growth of bacteria. Similarly, antifungal MICs were tested in Potato dextrose broth.
(§3) Clinical strains of yeasts including Candida albicans, C. glabrata, C. parapsilosis and C. quillermondiae were also tested with the 12 Chain peptides. The minimum inhibitory concentration (MICs) varied between these peptides and are presented in Tables 4a, 4b, 4c and 5a, 5b, 5c. Peptides Chain 105, 201 and 308 are broad spectrum antimicrobials with MICs between 0.5-32 μg/ml against all the bacteria and yeasts tested, except Serratia marcescens and Proteus mirabilis, against which the MICs were between 64-128 μg/ml. Peptide Chain 306 has narrow spectrum activity against E.coli at 1 μg/ml and for the rest of the bacterial strains at >32 μg/ml (FIG. 10).

[10] = tested on: clinical strains of Acinetobacter johnsonii; details: Acinetobacter johnsonii clinical strain 1; microdilution, Muller Hinton broth-cation adjusted, 0.02% BSA, 0.2% acetic acid
Protocol: as §2, §3

Gentamicin [reference compound]
Minimum inhibitory concentration ([1]; Escherichia coli clinical strain 1): 0.5 | Minimum inhibitory concentration ([1]; Escherichia coli clinical strain 2): 0.5 | Minimum inhibitory concentration ([1]; Escherichia coli clinical strain 3): 1 | Minimum inhibitory concentration ([1]; Escherichia coli clinical strain 4): 1 | Minimum inhibitory concentration ([1]; Escherichia coli clinical strain 5): 1 | Minimum inhibitory concentration ([2]; Klebsiella pneumoniae clinical strain 1): 2 | Minimum inhibitory concentration ([2]; Klebsiella pneumoniae clinical strain 2): 0.25 | Minimum inhibitory concentration ([2]; Klebsiella pneumoniae clinical strain 3): 2 | Minimum inhibitory concentration ([2]; Klebsiella pneumoniae clinical strain 4): 2 | Minimum inhibitory concentration ([2]; Klebsiella pneumoniae clinical strain 5): 4 | Minimum inhibitory concentration ([3]; Pseudomonas aeruginosa clinical strain 1): 1 | Minimum inhibitory concentration ([3]; Pseudomonas aeruginosa clinical strain 2): 0.5 | Minimum inhibitory concentration ([3]; Pseudomonas aeruginosa clinical strain 3): 0.5 | Minimum inhibitory concentration ([3]; Pseudomonas aeruginosa clinical strain 4): 0.5 | Minimum inhibitory concentration ([3]; Pseudomonas aeruginosa clinical strain 5): 0.25 | Minimum inhibitory concentration ([4]; Serratia marcescens clinical strain 1): 1 | Minimum inhibitory concentration ([4]; Serratia marcescens clinical strain 2): 2 | Minimum inhibitory concentration ([4]; Serratia marcescens clinical strain 3): 1 | Minimum inhibitory concentration ([4]; Serratia marcescens clinical strain 4): 1 | Minimum inhibitory concentration ([4]; Serratia marcescens clinical strain 5): 1 | Minimum inhibitory concentration ([5]; Proteus mirabilis clinical strain 1): 2 | Minimum inhibitory concentration ([5]; Proteus mirabilis clinical strain 2): 2 | Minimum inhibitory concentration ([5]; Proteus mirabilis clinical strain 3): >128 | Minimum inhibitory concentration ([5]; Proteus mirabilis clinical strain 4): 8 | Minimum inhibitory concentration ([5]; Proteus mirabilis clinical strain 5): >128 | Minimum inhibitory concentration ([6]; Enterobacter cloacae clinical strain 1): 0.25 | Minimum inhibitory concentration ([6]; Enterobacter cloacae clinical strain 2): 0.25 | Minimum inhibitory concentration ([6]; Enterobacter cloacae clinical strain 3): 0.25 | Minimum inhibitory concentration ([6]; Enterobacter cloacae clinical strain 4): 0.25 | Minimum inhibitory concentration ([6]; Enterobacter cloacae clinical strain 5): 0.25 | Minimum inhibitory concentration ([7]; Staphylococcus aureus clinical strain 1): 0.5 | Minimum inhibitory concentration ([7]; Staphylococcus aureus clinical strain 2): 0.5 | Minimum inhibitory concentration ([7]; Staphylococcus aureus clinical strain 3): 0.5 | Minimum inhibitory concentration ([7]; Staphylococcus aureus clinical strain 4): 0.5 | Minimum inhibitory concentration ([7]; Staphylococcus aureus clinical strain 5): 0.5 | Minimum inhibitory concentration ([8]; Streptococcus pneumoniae clinical strain 1): 2 | Minimum inhibitory concentration ([8]; Streptococcus pneumoniae clinical strain 2): 2 | Minimum inhibitory concentration ([8]; Streptococcus pneumoniae clinical strain 3): 2 | Minimum inhibitory concentration ([8]; Streptococcus pneumoniae clinical strain 4): 2 | Minimum inhibitory concentration ([8]; Streptococcus pneumoniae clinical strain 5): 1 | Minimum inhibitory concentration ([9]; Acinetobacter baumannii clinical strain 1): 0.5 | Minimum inhibitory concentration ([9]; Acinetobacter baumannii clinical strain 2): 0.25 | Minimum inhibitory concentration ([9]; Acinetobacter baumannii clinical strain 3): 0.5 | Minimum inhibitory concentration ([9]; Acinetobacter baumannii clinical strain 4): 0.5 | Minimum inhibitory concentration ([9]; Acinetobacter baumannii clinical strain 5): 0.25 | Minimum inhibitory concentration [10]: 0.25
